Values of other authors, collected in patent US20040028613A1, “Dopamine agonist formulations for enhanced central nervous system delivery” (Nastech Pharmaceutical Company Inc, priority 2001, published 2004).
Values belong to the compound of their own block, whether it stands above or below them.

Assays:
[1] = test system: ciliary function in epithelial cell cultures
[2] = intraduodenal, rats, with 1% (w/v) saline dispersion of polycarbophil
[3] = subcutaneous injection
[4] = test system: ciliary movement of human adenoid tissue; details: for time in which ciliary movement was inhibited / inhibitory effect on ciliary movement at the end of 60 mm: 0.3%
[5] = 2.5 mg to 3.5 mg, hypotension, nausea, vomiting, impaired vision, diaphoresis, ashen coloring
[6] = aqueous solution, physiologic pH

Compound: 2-alkyl-4-hydroxyquinolines [pyo compound]
concentration producing ciliostasis / inhibiting ciliary motility [1]: 50 µg/mL

Compound: 9-desglycinamide, 8-arginine vasopressin
increase of bioavailability compared to aqueous solution without polymer [2]: 3-5 fold

CSF level at 20 min ([3]; prior art, patients): 1.08 ng/mL | Plasma level at 20 min ([3]; prior art, patients): 25.04 ng/mL
Compound: CN1CCc2cccc3c2[C@H]1Cc1ccc(O)c(O)c1-3 [SC Inj (ref. 1), apomorphine]

Compound: CC(=O)OC1CC2(C)C(CC(O)C3C4(C)CCC(O)C(C)C4CCC32C)C1=C(CCCC(C)C)C(=O)NCCS(=O)(=O)O (stereo not drawn) [STDHF, sodium taurodihydrofusidate]
inhibition of ciliary movement ([4]; concentration of 0.3%, at 60 minutes): total

CSF levels of active drug as percentage of levels found in the plasma [3]: less than 5%
Compound: CN1CCc2cccc3c2[C@H]1Cc1ccc(O)c(O)c1-3 [apomorphine]
side effects of intranasal delivery [5]: extensive and serious side effects

Compound: CC(C)CC(N)B(O)O (stereo not drawn) [boro-leucine]
effectiveness in enzyme inhibition relative to bestatin (aminopeptidases): more than 100 times | effectiveness in enzyme inhibition relative to puromycin (aminopeptidases): more than 1000 times

Compound: C[C@H](CCC(=O)O)[C@H]1CC[C@H]2[C@@H]3CC[C@@H]4C[C@H](O)CC[C@]4(C)[C@H]3C[C@H](O)[C@]12C [deoxycholate, deoxycholic acid]
time in which ciliary movement was inhibited [4]: 20 mm

Compound: CCN(CC)/[N+]([O-])=N/O.CCNCC [diethylamine/NO]
rate (time) of NO release [6]: < 3 min

Compound: NCCN(CCN)/[N+]([O-])=N/O [diethylenetriamine/NO (DETANO)]
rate (time) of NO release [6]: approximately 20 hours

Compound: C[C@H](CCC(=O)NCC(=O)O)[C@H]1CC[C@H]2[C@@H]3[C@H](O)C[C@@H]4C[C@H](O)CC[C@]4(C)[C@H]3C[C@H](O)[C@]12C [glycocholate, glycocholic acid]
inhibitory effect on ciliary movement at the end of 60 mm [4]: no inhibitory effect

Compound: C[C@H](CCC(=O)NCCS(=O)(=O)O)[C@H]1CC[C@H]2[C@@H]3[C@H](O)C[C@@H]4C[C@H](O)CC[C@]4(C)[C@H]3C[C@H](O)[C@]12C [taurocholate, taurocholic acid]
inhibitory effect on ciliary movement at the end of 60 mm [4]: no inhibitory effect

Compound: Laureth-9
time in which ciliary movement was inhibited [4]: 10 mm
